# Patent US7906334B2, “Method for reproducing conifers by somatic embryogenesis using lactose as a carbon source” (Cellfor Inc., priority 2003, dated 2011)
# Columns and labels:
# [1] = system: Loblolly pine megagametophytes containing immature zygotic embryos; assay: Effect of carbon source on induction of loblolly pine; format: cell-based, Pinus taeda (loblolly pine)
# Description: Female gametophytes containing the immature zygotic embryos were used as explants. The cones were surface sterilized in 10% bleach solution for 15 min. They were rinsed 3 times with sterile water, air dried and stored in polyethylene bags at 4° C. until used. Seeds were sterilized in 3% hydrogen peroxide containing 0.1% Tween 20 and rinsed in sterile deionized water. Megagametophytes containing the immature embryos were plated on TX medium (Table A) supplemented with 2.2 mg/l 2,4-D, 1 mg/l BA and 0.3% Phytagel and containing either 1% sucrose, or 1.5% lactose and 0.025% glucose.
# Cultures were maintained on the two media by subculturing the embryogenic tissue every 10 to 14 days to fresh media. All cultures were incubated at 23° C. in the dark.
# [2] = system: loblolly pine embryogenic tissue; assay: Effect of carbon source on solid maintenance of loblolly pine; format: cell-based, Pinus taeda (loblolly pine); conditions: semi-solid TX medium; 1% sucrose, or 1.5% lactose and 0.025% glucose
# Description: Tissue induced on sucrose from Example 1 was further maintained on the semi-solid TX medium containing 1% sucrose, and tissue induced on lactose was maintained on semi-solid TX medium containing 1.5% lactose and 0.025% glucose. The tissue morphology of the lines induced on lactose was different from the ones induced on sucrose. […] In order to further increase the proliferation rate, 0.5% sucrose was added to the TX 1.5% lactose-containing medium in place of 0.025% glucose. This medium provided a reasonable bulk-up rate, and growth of embryos was more synchronized than in the 1% sucrose medium.
# [3] = system: Suspension cultures of loblolly lines LP1, LP2, LP3, LP4 and LP5; assay: Effect of carbon source on liquid maintenance: growth rate and yield of somatic embryos; format: cell-based, Pinus taeda (loblolly pine); conditions: 1% sucrose
# Description: Suspension cultures of loblolly lines LP1, LP2, LP3, LP4 and LP5 were started with 2 g of tissue introduced to 50 ml of TX liquid medium containing different sugars—1% sucrose, 1.5% maltose, or 1.5% lactose. These cultures were maintained in the same liquid media for 2 weeks by weekly transfers to fresh maintenance medium containing the above sugars. Then, 2 g of tissue produced in each maintenance medium was transferred to prematuration media I, containing the same carbon source as the maintenance media. After one week, 1.5 g of tissue from each prematuration medium I was transferred to prematuration media II containing the same sugars. After the 4 week period in liquid media, early stage somatic embryos were collected and plated on ½ LV maturation medium containing 120 μM ABA and 6.0% sucrose and 1% Phytagel. Eight to ten weeks later, mature somatic embryos were counted and treatments were evaluated based on the number of somatic embryos per gram fresh weight (SE/g FW). Table 2 summarises the tissue yield at the end of the 4-week period and the number of mature somatic embryos produced for each line.
# [4] = system: loblolly pine lines LP2, LP3 and LP4; assay: Effect of lactose during the prematuration steps; format: cell-based, Pinus taeda (loblolly pine); conditions: 1% sucrose maintenance
# Description: Prematuration for loblolly pine may be performed in two steps: • 1. Prematuration I requires reduction of hormones either by reducing the auxin and cytokinin concentrations to optimally about 1/20 of the concentration of proliferation step, or by adding charcoal at about 0.01 to 1%, or a combination of both. • 2. Prematuration II follows prematuration I and requires an addition of ABA at concentrations of about 5 to 120 μM, preferably 90 μM and no auxin and cytokinins.
# In order to further understand the effect of lactose on somatic embryo development, liquid maintenance cultures were started in TX medium containing 1% sucrose as in Example 3. Three lines were used in this experiment, LP2, LP3 and LP4. After the proliferation step, 2 g of the tissue was transferred for one week to prematuration medium I containing different concentrations of lactose—1.5%, 3% and 6%. After that, 1.5 g of tissue produced in the lactose-containing media was further cultured for a week in prematuration medium II containing the same amount of lactose. 3.
# [5] = system: loblolly pine lines LP1 and LP3; assay: Effect of galactose and galactose-containing sugars during proliferation and prematuration on SE yield; format: cell-based, Pinus taeda (loblolly pine); set-up: Amount of tissue at the end of the preculture II stage: unit not given here; conditions: for # SE/g FW / Amount of tissue at the end of the preculture II stage: 1% sucrose, 1.5% maltose, 1.5% lactose or 0.75% galactose
# Description: The finding that loblolly pine cultures were capable of utilising galactose is unique. In order to further investigate these phenomenon two lines, LP1 and LP3, were cultured on semi-solid TX medium containing 1.0% lactose and 0.5% sucrose. Cultures were maintained by subculturing the embryogenic tissue every 10 to 14 days to fresh media. All cultures were incubated at 23° C. in the dark. Suspension cultures were initiated as described in Example 3, however, TX medium was supplemented with either 1% sucrose, 1.5% maltose, 1.5% lactose, or 0.75% galactose. These cultures were maintained in liquid media for 4 weeks by weekly transfers to fresh maintenance or prematuration media. After the 4˜week period, 1 ml of the liquid medium containing 0.1 g of tissue consisting of early stage somatic embryos was plated on each […] plates containing ½ LV maturation medium. This medium contained 120 μM ABA and 6.0% sucrose and 1% Phytagel. Eight to ten weeks later, mature somatic embryos were counted and treatments were evaluated based on the number of somatic embryos per gram fresh weight (Table 5).
# [6] = system: Douglas fir embryogenic tissue, cell line DF-2; assay: Effects of carbohydrates on liquid maintenance of Douglas fir embryogenic tissue; format: cell-based, Pseudotsuga menziesii (Douglas fir); conditions: 3 weeks suspension maintenance/bulking-up, 0.5% galactose, 1% lactose, 0.5% mannitol
# Description: The culture medium for Douglas fir was TX medium (see Table A) with the following additives: glutamine 100 mg., Casein hydrolysate 100 mg., and pH 5.8. The following compounds were added into the basal medium for Douglas fir somatic embryo development at different stages: • 1) Induction medium: 18 μM 2,4-D and 9 μM BA, phytagel 0.28%, sucrose 1% • 2) Solid maintenance medium: 9 μM 2,4-D and 4.5 μM BA, phytagel 0.28%, sucrose 1%. • 3) Liquid maintenance and bulking-up medium: 9 μM 2,4-D and 4.5 μM BA, different carbon sources for experiments. • 4) Liquid pre-treatment medium: 20 (first week) or 30 μM ABA (second week), 10% PEG4000 (first week) or PEG1500 (second week), different carbon sources as described in examples below. • 5) Solid maturation media: TX (Table A) plus 0.02% NH4NO3 • Medium I. 40 μM ABA, 10% PEG 1500, maltose 2.5%, phytagel 0.6% • Medium II. 60 μM ABA, 10% PEG1500, maltose 2.5% and sucrose 1%, phytagel 0.8% • Medium III. 70 μM ABA, 6% PEG1500, sucrose 6%, phytagel 1%.
# Embryogenic tissue was induced from immature zygotic embryos. The cones and seeds were surface-sterilised as described for pines, and embryos were dissected out from megagametophytes. The embryos, with the attachment of suspensors to their megagametophytes, were placed on the surface of induction medium. The culture was kept in darkness at 23° C. Embryogenic tissue was sub-cultured once every two weeks onto solid maintenance medium.
# Embryogenic tissue of Douglas fir was collected from solid maintenance culture and one gram of tissue was transferred into a 200 ml flask containing 50 ml TX (see Table A) liquid maintenance medium. The liquid maintenance medium was supplied with different sugars (Table 8).
# The tissue was drained, weighed and sub-cultured once per week. During a culture period of three weeks, the highest tissue growth was found in the culture with glucose as the major carbon source. The media containing sucrose, maltose and galactose also supported a fast tissue growth. With these latter sugars, tissue increased to 68 to 100 fold in three weeks. Tissue grew little in the media containing lactose or mannitol. […] Similar results were obtained within two cell lines, DF-7A and DF-2.
# [7] = system: Douglas fir embryogenic tissue; assay: Medium osmolarity before and after one-week tissue inoculation; format: cell-based, Pseudotsuga menziesii (Douglas fir); conditions: medium with 0.5% galactose, 1% lactose, 0.5% mannitol or 0.5% glucose
# From the text: More change of medium osmolarity occurred during week 2 than week 1. The medium osmolarity changed little when lactose or mannitol was used in the media.
# [8] = then 1.5% lactose in prematuration I and II
# [9] = then 3% lactose in prematuration I and II
# [10] = then 6% lactose in prematuration I and II
compound,measurement,setting,value
OC[C@H]1O[C@@H](O[C@H]2[C@H](O)[C@@H](O)C(O)O[C@@H]2CO)[C@H](O)[C@@H](O)[C@H]1O (stereo partly drawn) [Lactose],"Induction success, lactose medium compared with sucrose medium",[1],greater than three times higher
same,tissue morphology,[2],more early-stage immature embryos and a limited amount of suspensor type of surrounding tissue
same,# SE/g FW ± sd,"[3]; 1.5% maltose or 1.5% lactose for 4 weeks in liquid, then 8-10 weeks on 1/2 LV maturation medium",393 ± 10 SE/g FW
same,Average amount of tissue produced after 4 weeks in liquid (FW g),"[3]; 1.5% maltose or 1.5% lactose in maintenance and prematuration I and II, started with 2 g",18.63 g
same,Mean # SE/g FW ± sd,[4]; [8],106 ± 9 SE/g FW
same,Mean grams FW at the end of prematuration stage,[4]; [8],121.90 g
same,Mean # SE/g FW ± sd,[4]; [9],209 ± 7 SE/g FW
same,Mean grams FW at the end of prematuration stage,[4]; [9],216.47 g
same,Mean # SE/g FW ± sd,[4]; [10],169 ± 10 SE/g FW
same,Mean grams FW at the end of prematuration stage,[4]; [10],149.13 g
same,embryos produced,"[5]; line LP1, as stated in the text",over 1000 embryos
same,# SE/g FW,[5]; line LP1,1060 ± 17 SE/g FW
same,Amount of tissue at the end of the preculture II stage,[5]; line LP1,28.9
same,# SE/g FW,[5]; line LP3,110 ± 7 SE/g FW
same,Amount of tissue at the end of the preculture II stage,[5]; line LP3,8.78
same,"Tissue growth (fold, mean ± SD)","[6]; additional glucose 0%, 0.5% glucose, 1% sucrose, 1% maltose",1.40 ± 0.14 fold
same,"Tissue growth (fold, mean ± SD)",[6]; additional glucose 0.025%,2.75 ± 0.24 fold
same,"Osmolarity before inoculation (mmol/kg, mean ± SD)",[7],93.33 ± 0.58 mmol/kg
